{"source": "patent US10016382B2", "about": "“Method for decreasing skeletal muscle damage and/or oxidative stress in mammals” (LONZA INC., priority 2014, dated 2018)", "key": {"Labrador Retrievers": {"tested_on": "Labrador Retrievers", "assay": "Activity by Actical monitors, long (endurance) runs, Example 1", "type": "in vivo, dog", "conditions": "Ex.1, 250 mg/d; for Activity long runs, Least Sq Mean: average of 13 weekly long runs, mixed model", "description": "Each test dog wore an Actical activity monitor from Philips Respironics on a collar for the short higher intensity runs and also wore an Actical activity monitor for the weekly longer endurance runs. The activity data was downloaded into spread sheets along with each dogs identity. Twenty four hours after each long run during the 13 wk running program each of the dogs were scored by kennel staff for soreness or any type of lameness The exercise program was decreased in a tapering program during wk 11 and 12 to allow the dogs to rest for the final long run completed on wk 13. Pre-run serum samples from each test dog was taken 24 hr before the last endurance run. The heart rate and basal body temperature was determined for each test dog prior to the last long endurance run. The distance and number of sprints affiliated with the short runs (marks) were decreased during wk 11 back to 1200 total yd/d or 2400 yd/wk and decreased again on wk 12 to 600 yd/d or a total of 1200 yd/wk to provide rest for the final long run on wk 13. The weekly endurance run was 5 miles in the beginning, increased by ½ mile per wk and was increased to a distance of 10 miles on the 10th week. The dogs ran only a 5 mile endurance run on wk 11 and only a 2 mile endurance run on wk 12 in order to rest for the final long run during the 13th wk. The endurance (long) runs for the 40 dogs were carried out on the 5th and 6th day of each wk for both treatments. Half of the dogs were run on Friday (5th d) and half of the dogs were run on the Saturday (6th d). The exercise regimen was finalized during the 13th week of the study by resting the dogs for 3 days and then running half of the dogs from each group for a 15 mile endurance run on Monday and the remaining 20 dogs were run the 15 mile endurance run on Tuesday. The longer endurance type runs were slightly slower to enhance fat oxidation and represent an exercise intensity equivalent to 50%-65% VO2 max. Performance and Recovery Time: An Actical monitor (Philips Respironics) was worn around the neck of each dog on a collar and utilized to evaluate the amount of movement (measured total movements and intensity) for each dog for the purpose of evaluating equal work between treatments and also to evaluate the individual work intensity while completing the daily retrieves. Each dog wore the Actical monitor for each long run and wore the Actical monitor for the final 15 mile run. The Actical monitor data was downloaded to a computer for evaluation. Statistical Methods: GraphPad Prism 6.0 was used to compare means between groups for run time, food intake, body weight, and changes in blood chemistry using an unpaired t-test. Results were considered significant if a p-value of 0.05 was obtained. JMP 10.0.2 was used to create a mixed model for long runs, short runs, body composition, and blood chemistry."}, "[1]": {"tested_on": "Thiobarbituric acid reactive substances (TBARS)", "assay": "Serum TBARS, Example 2 part one", "type": "in vivo, dog", "conditions": "for TBARS level, serum: Ex.2 part one, 250 mg/d; for TBARS: serum", "description": "Twenty-four hours after test dogs ran the last 15 mile endurance run, serum samples were taken to evaluate biomarkers for muscle damage and antioxidant status. Blood samples were taken 1) just prior to the beginning of the study; 2) 1 day prior to running the final 15 mile run on the 14th week; 3) 1 hour immediately following the 15 mile run; and 4) 24 hours following the final 15 mile run. After a blood sample was drawn, it was allowed to clot for 30 minutes at 25° C. before being centrifuged for 15 minutes at 2000 g at 4° C. Serum was aliquoted into 0.65 mL microcentrifuge tubes and stored at −80° C. until being assayed at the end of the study for creatine kinase, canine myoglobin, thiobarbituric acid reactive substances (TBARS), and total antioxidant capacity (TAC) using the commercially available kits described in Example 1."}}, "note": "“And” between values parts separate entries of the source, which are not always exact repeats. Equal entries are not always repeated."}
{"smiles": "C[N+](C)(C)C[C@H](O)CC(=O)[O-]", "note": "[L-carnitine]", "values": [{"measurement": "Activity long runs, APM/lb Mean", "setting": "Labrador Retrievers; Week 1, both sexes", "value": 1535, "unit": "Movements/Mile/LB BW"}, {"measurement": "Activity long runs, APM/lb Mean", "setting": "Labrador Retrievers; Week 1, females", "value": 1825, "unit": "Movements/Mile/LB BW"}, {"measurement": "Activity long runs, APM/lb Mean", "setting": "Labrador Retrievers; Week 1, males", "value": 1298, "unit": "Movements/Mile/LB BW"}, {"measurement": "Activity long runs, APM/lb Mean", "setting": "Labrador Retrievers; Week 2, both sexes", "value": 1385, "unit": "Movements/Mile/LB BW"}, {"measurement": "Activity long runs, APM/lb Mean", "setting": "Labrador Retrievers; Week 2, females", "value": 1616, "unit": "Movements/Mile/LB BW"}, {"measurement": "Activity long runs, APM/lb Mean", "setting": "Labrador Retrievers; Week 2, males", "value": 1177, "unit": "Movements/Mile/LB BW"}, {"measurement": "Activity long runs, APM/lb Mean", "setting": "Labrador Retrievers; Week 3, both sexes", "value": 1298, "unit": "Movements/Mile/LB BW"}, {"measurement": "Activity long runs, APM/lb Mean", "setting": "Labrador Retrievers; Week 3, females", "value": 1559, "unit": "Movements/Mile/LB BW"}, {"measurement": "Activity long runs, APM/lb Mean", "setting": "Labrador Retrievers; Week 3, males", "value": 1065, "unit": "Movements/Mile/LB BW"}, {"measurement": "Activity long runs, APM/lb Mean", "setting": "Labrador Retrievers; Week 4, both sexes", "value": 1334, "unit": "Movements/Mile/LB BW"}, {"measurement": "Activity long runs, APM/lb Mean", "setting": "Labrador Retrievers; Week 4, females", "value": 1522, "unit": "Movements/Mile/LB BW"}, {"measurement": "Activity long runs, APM/lb Mean", "setting": "Labrador Retrievers; Week 4, males", "value": 1093, "unit": "Movements/Mile/LB BW"}, {"measurement": "Activity long runs, APM/lb Mean", "setting": "Labrador Retrievers; Week 5, both sexes", "value": 1288, "unit": "Movements/Mile/LB BW"}, {"measurement": "Activity long runs, APM/lb Mean", "setting": "Labrador Retrievers; Week 5, females", "value": 1582, "unit": "Movements/Mile/LB BW"}, {"measurement": "Activity long runs, APM/lb Mean", "setting": "Labrador Retrievers; Week 5, males", "value": 1048, "unit": "Movements/Mile/LB BW"}, {"measurement": "Activity long runs, APM/lb Mean", "setting": "Labrador Retrievers; Week 6, both sexes", "value": 1278, "unit": "Movements/Mile/LB BW"}, {"measurement": "Activity long runs, APM/lb Mean", "setting": "Labrador Retrievers; Week 6, females", "value": 1472, "unit": "Movements/Mile/LB BW"}, {"measurement": "Activity long runs, APM/lb Mean", "setting": "Labrador Retrievers; Week 6, males", "value": 1105, "unit": "Movements/Mile/LB BW"}, {"measurement": "Activity long runs, APM/lb Mean", "setting": "Labrador Retrievers; Week 7, both sexes", "value": 1264, "unit": "Movements/Mile/LB BW"}, {"measurement": "Activity long runs, APM/lb Mean", "setting": "Labrador Retrievers; Week 7, females", "value": 1391, "unit": "Movements/Mile/LB BW"}, {"measurement": "Activity long runs, APM/lb Mean", "setting": "Labrador Retrievers; Week 7, males", "value": 1162, "unit": "Movements/Mile/LB BW"}, {"measurement": "Activity long runs, APM/lb Mean", "setting": "Labrador Retrievers; Week 8, both sexes", "value": 1241, "unit": "Movements/Mile/LB BW"}, {"measurement": "Activity long runs, APM/lb Mean", "setting": "Labrador Retrievers; Week 8, females", "value": 1437, "unit": "Movements/Mile/LB BW"}, {"measurement": "Activity long runs, APM/lb Mean", "setting": "Labrador Retrievers; Week 8, males", "value": 1081, "unit": "Movements/Mile/LB BW"}, {"measurement": "Activity long runs, APM/lb Mean", "setting": "Labrador Retrievers; Week 9, both sexes", "value": 1194, "unit": "Movements/Mile/LB BW"}, {"measurement": "Activity long runs, APM/lb Mean", "setting": "Labrador Retrievers; Week 9, females", "value": 1355, "unit": "Movements/Mile/LB BW"}, {"measurement": "Activity long runs, APM/lb Mean", "setting": "Labrador Retrievers; Week 9, males", "value": 1062, "unit": "Movements/Mile/LB BW"}, {"measurement": "Activity long runs, APM/lb Mean", "setting": "Labrador Retrievers; Week 10, both sexes", "value": 1192, "unit": "Movements/Mile/LB BW"}, {"measurement": "Activity long runs, APM/lb Mean", "setting": "Labrador Retrievers; Week 10, females", "value": 1385, "unit": "Movements/Mile/LB BW"}, {"measurement": "Activity long runs, APM/lb Mean", "setting": "Labrador Retrievers; Week 10, males", "value": 1018, "unit": "Movements/Mile/LB BW"}, {"measurement": "Activity long runs, APM/lb Mean", "setting": "Labrador Retrievers; Week 11, both sexes", "value": 1364, "unit": "Movements/Mile/LB BW"}, {"measurement": "Activity long runs, APM/lb Mean", "setting": "Labrador Retrievers; Week 11, females", "value": 1655, "unit": "Movements/Mile/LB BW"}, {"measurement": "Activity long runs, APM/lb Mean", "setting": "Labrador Retrievers; Week 11, males", "value": 1126, "unit": "Movements/Mile/LB BW"}, {"measurement": "Activity long runs, APM/lb Mean", "setting": "Labrador Retrievers; Week 13, both sexes", "value": 1116, "unit": "Movements/Mile/LB BW"}, {"measurement": "Activity long runs, APM/lb Mean", "setting": "Labrador Retrievers; Week 13, females", "value": 1251, "unit": "Movements/Mile/LB BW"}, {"measurement": "Activity long runs, APM/lb Mean", "setting": "Labrador Retrievers; Week 13, males", "value": 1006, "unit": "Movements/Mile/LB BW"}, {"measurement": "Activity long runs, Least Sq Mean", "setting": "Labrador Retrievers; both sexes", "value": "1317 Movements/Mile/LB BW and 1317.0647 Movements/Mile/LB BW"}, {"measurement": "Activity long runs, Least Sq Mean", "setting": "Labrador Retrievers; females", "value": "1509 Movements/Mile/LB BW and 1509.2493 Movements/Mile/LB BW"}, {"measurement": "Activity long runs, Least Sq Mean", "setting": "Labrador Retrievers; males", "value": "1124 Movements/Mile/LB BW and 1124.8801 Movements/Mile/LB BW"}, {"measurement": "TBARS level, serum", "setting": "[1]; post-run 1 hr, MDA", "value": 16.45, "unit": "µM"}, {"measurement": "TBARS level, serum", "setting": "[1]; prior to the 15 mile endurance run", "value": "15.36 μM malondialdehyde (MDA)"}, {"measurement": "TBARS", "setting": "[1]; FEMALES, Baseline", "value": "13.03 ± 1.29", "unit": "μM MDA"}, {"measurement": "TBARS", "setting": "[1]; FEMALES, Post-Run 1 Hr", "value": "17.44 ± 2.26", "unit": "μM MDA"}, {"measurement": "TBARS", "setting": "[1]; FEMALES, Post-Run 24 Hr", "value": "26.01 ± 3.09", "unit": "μM MDA"}, {"measurement": "TBARS", "setting": "[1]; FEMALES, Pre-Run", "value": "16.68 ± 2.16", "unit": "μM MDA"}, {"measurement": "TBARS", "setting": "[1]; MALES, Baseline", "value": "14.51 ± 1.38", "unit": "μM MDA"}, {"measurement": "TBARS", "setting": "[1]; MALES, Post-Run 1 Hr", "value": "15.46 ± 1.79", "unit": "μM MDA"}, {"measurement": "TBARS", "setting": "[1]; MALES, Post-Run 24 Hr", "value": "19.62 ± 2.38", "unit": "μM MDA"}, {"measurement": "TBARS", "setting": "[1]; MALES, Pre-Run", "value": "14.03 ± 2.24", "unit": "μM MDA"}, {"measurement": "TBARS", "setting": "[1]; Whole Groups, Baseline", "value": "13.77 ± 0.94", "unit": "μM MDA"}, {"measurement": "TBARS", "setting": "[1]; Whole Groups, Post-Run 1 Hr, Post-Run 1 Hr", "value": "16.45 ± 1.43", "unit": "μM MDA"}, {"measurement": "TBARS", "setting": "[1]; Whole Groups, Post-Run 24 Hr, Post-Run 24 Hr", "value": "22.81 ± 2.01", "unit": "μM MDA"}, {"measurement": "TBARS", "setting": "[1]; Whole Groups, Pre-Run", "value": "15.36 ± 1.55", "unit": "μM MDA"}]}
